Laboratory results reported in ChEMBL document CHEMBL4765421, “Synthesis of natural 3'-Prenylchalconaringenin and biological evaluation of ameliorating non-alcoholic fatty liver disease and metabolic syndrome” (Eur J Med Chem, 2020).
Active and inactive are the calls of the source. The calls are words filed in the database; no cut-off is given here.

Key:
HepG2 [1] = assay: Cytotoxicity against human HepG2 cells assessed as reduction in cell viability at 10 to 20 uM by MTT assay; assay type: cell-based; conditions: hepg2, 20 µM, dose 10-20 µM
HepG2 [2] = assay: Hypolipidemic activity in oleic, palmitic, linoleic and arachidonic acid 29:47:18:6 (v/v)-induced hyperlipidemia in human HepG2 cells assessed as reduction in lipid content at 10 uM by Oil Red O staining based assay relative to control; assay type: functional; parameters: scale not given: the % may be the effect or the level left
HepG2 [3] = assay: Hypolipidemic activity in oleic, palmitic, linoleic and arachidonic acid 29:47:18:6 (v/v)-induced hyperlipidemia in human HepG2 cells assessed as reduction in lipid content at 7.5 uM by Oil Red O staining based assay relative to control; assay type: functional; parameters: scale not given: the % may be the effect or the level left
HepG2 [4] = assay: Hypolipidemic activity in oleic, palmitic, linoleic and arachidonic acid 29:47:18:6 (v/v)-induced hyperlipidemia in human HepG2 cells assessed as reduction in lipid content by Nile Red and DAPI staining based fluorescence microscopic analysis; assay type: functional, cell-based
3T3-L1 [5] = assay: Cytotoxicity against mouse 3T3-L1 cells assessed as reduction in cell viability by MTT assay; assay type: cell-based
3T3-L1 [6] = assay: Hypolipidemic activity in mouse 3T3-L1 preadipocytes assessed as reduction in lipid content at 15 uM by Oil Red O staining based assay relative to control; assay type: functional; parameters: scale not given: the % may be the effect or the level left
3T3-L1 [7] = assay: Hypolipidemic activity in mouse 3T3-L1 preadipocytes assessed as reduction in lipid content at 10 uM by Oil Red O staining based assay relative to control; assay type: functional; parameters: scale not given: the % may be the effect or the level left
3T3-L1 [8] = assay: Hypolipidemic activity in mouse 3T3-L1 preadipocytes assessed as reduction in lipid content at 5 uM by Oil Red O staining based assay relative to control; assay type: functional; parameters: scale not given: the % may be the effect or the level left
HepG2 [9] = assay: Activation of AMPK in oleic, palmitic, linoleic and arachidonic acid 29:47:18:6 (v/v)-induced human HepG2 cells assessed as increase in AMPK phosphorylation at 1 uM by Western blot analysis relative to control; conditions: filed as activator
HepG2 [10] = assay: Activation of AMPK in oleic, palmitic, linoleic and arachidonic acid 29:47:18:6 (v/v)-induced human HepG2 cells assessed as increase in ACC phosphorylation at 1 uM by Western blot analysis relative to control
3T3-L1 [11] = assay: Activation of AMPK in mouse 3T3-L1 preadipocytes assessed as increase in ACC phosphorylation at 0.1 to 15 uM by Western blot analysis; assay type: cell-based; conditions: filed as activator, dose 0.1-15 µM
Mus musculus [12] = assay: Hypolipidemic activity in tyloxapol-induced Kunming mouse model of hyperlipidemia assessed as reduction in serum lipid level at 50 to 100 mg/kg, po measured after 24 hrs by macroscopic analysis; assay type: functional, organism-based; conditions: dose 50-100 mg/kg
Mus musculus [13] = assay: Hypolipidemic activity in tyloxapol-induced Kunming mouse model of hyperlipidemia assessed as reduction in serum total cholesterol level administered orally measured after 24 hrs; assay type: functional, organism-based
Mus musculus [14] = assay: Hypolipidemic activity in tyloxapol-induced Kunming mouse model of hyperlipidemia assessed as reduction in serum ALT level administered orally measured after 24 hrs; assay type: functional, organism-based
Mus musculus [15] = assay: Hypolipidemic activity in tyloxapol-induced Kunming mouse model of hyperlipidemia assessed as reduction in serum AST level administered orally measured after 24 hrs; assay type: functional, organism-based
Mus musculus [16] = assay: Hypolipidemic activity in tyloxapol-induced Kunming mouse model of hyperlipidemia assessed as reduction in fatty liver phenotype at 50 to 100 mg/kg, po measured after 24 hrs; assay type: functional, organism-based; conditions: dose 50-100 mg/kg
Mus musculus [17] = assay: Hypolipidemic activity in tyloxapol-induced Kunming mouse model of hyperlipidemia assessed as reduction in lipid level in liver at 50 to 100 mg/kg, po measured after 24 hrs by Oil Red O staining based assay; assay type: functional, organism-based; conditions: dose 50-100 mg/kg
Mus musculus [18] = assay: Hypolipidemic activity in tyloxapol-induced Kunming mouse model of hyperlipidemia at 50 to 100 mg/kg, po measured after 24 hrs by Masson's trichrome staining based assay; assay type: functional, organism-based; conditions: dose 50-100 mg/kg
Mus musculus [19] = assay: Hypolipidemic activity in tyloxapol-induced Kunming mouse model of hyperlipidemia assessed as reduction in liver triglyceride level administered orally measured after 24 hrs; assay type: functional, organism-based
Mus musculus [20] = assay: Hypolipidemic activity in tyloxapol-induced Kunming mouse model of hyperlipidemia assessed as liver index at 100 mg/kg, po measured after 24 hrs (reference value: 65.00 +/- 0.87); assay type: functional
Mus musculus [21] = assay: Hypolipidemic activity in tyloxapol-induced Kunming mouse model of hyperlipidemia assessed as perirenal white adipose tissue index at 100 mg/kg, po measured after 24 hrs (reference value: 18.14 +/- 1.44); assay type: functional
Mus musculus [22] = assay: Hypolipidemic activity in tyloxapol-induced Kunming mouse model of hyperlipidemia assessed as epididymis white adipose tissue index at 100 mg/kg, po measured after 24 hrs (reference value: 23.43 +/- 3.10); assay type: functional
Mus musculus [23] = assay: In vivo induction of AMPK in tyloxapol-induced Kunming mouse model of hyperlipidemia assessed as increase in AKT phosphorylation in liver at 50 to 100 mg/kg, po measured after 24 hrs by Western blot analysis; assay type: functional, organism-based; conditions: dose 50-100 mg/kg
Mus musculus [24] = assay: In vivo induction of AMPK in tyloxapol-induced Kunming mouse model of hyperlipidemia assessed as increase in AMPKalpha phosphorylation in liver at 50 to 100 mg/kg, po measured after 24 hrs by Western blot analysis; assay type: functional, organism-based; conditions: dose 50-100 mg/kg
Mus musculus [25] = assay: In vivo induction of AMPK in tyloxapol-induced Kunming mouse model of hyperlipidemia assessed as increase in ACC phosphorylation in white adipose tissue at 50 to 100 mg/kg, po measured after 24 hrs by Western blot analysis; assay type: functional, organism-based; conditions: dose 50-100 mg/kg
Mus musculus [26] = assay: In vivo induction of AMPK in tyloxapol-induced Kunming mouse model of hyperlipidemia assessed as increase in ACC phosphorylation in liver at 50 to 100 mg/kg, po measured after 24 hrs by Western blot analysis; assay type: functional, organism-based; conditions: dose 50-100 mg/kg
Mus musculus [27] = assay: In vivo induction of AMPK in tyloxapol-induced Kunming mouse model of hyperlipidemia assessed as decrease in SREBP1-C expression in white adipose tissue at 50 to 100 mg/kg, po measured after 24 hrs by Western blot analysis; assay type: functional, organism-based; conditions: dose 50-100 mg/kg
Mus musculus [28] = assay: In vivo induction of AMPK in tyloxapol-induced Kunming mouse model of hyperlipidemia assessed as decrease in SREBP1-C expression in liver at 50 to 100 mg/kg, po measured after 24 hrs by Western blot analysis; assay type: functional, organism-based; conditions: dose 50-100 mg/kg
Mus musculus [29] = assay: In vivo induction of AMPK in tyloxapol-induced Kunming mouse model of hyperlipidemia assessed as decrease in FAS expression in liver at 50 to 100 mg/kg, po measured after 24 hrs by Western blot analysis; assay type: functional, organism-based; conditions: dose 50-100 mg/kg
Mus musculus [30] = assay: In vivo effect on PPAR signaling in tyloxapol-induced Kunming mouse model of hyperlipidemia assessed as increase in mTOR phosphorylation in liver administered orally measured after 24 hrs by Western blot analysis; assay type: functional, organism-based
Mus musculus [31] = assay: In vivo effect on PPAR signaling in tyloxapol-induced Kunming mouse model of hyperlipidemia assessed as increase in PPARalpha expression in white adipose tissue at 50 to 100 mg/kg, po measured after 24 hrs by Western blot analysis; assay type: functional, organism-based; conditions: dose 50-100 mg/kg
Mus musculus [32] = assay: In vivo effect on PPAR signaling in tyloxapol-induced Kunming mouse model of hyperlipidemia assessed as decrease in PPARgamma expression in liver at 50 to 100 mg/kg, po measured after 24 hrs by Western blot analysis; assay type: functional, organism-based; conditions: dose 50-100 mg/kg

CC(C)=CCC/C(C)=C/Cc1c(O)cc(O)c(C(=O)/C=C/c2ccc(O)cc2)c1O
Activity (HepG2 [1]): Non-Toxic
Activity (HepG2 [2]): 54.38%
Activity (HepG2 [3]): 43.86%
Activity (HepG2 [4]): Dose-dependent effect
Activity (3T3-L1 [5]): Non-Toxic
Activity (3T3-L1 [6]): 83.91%
Activity (3T3-L1 [7]): 67.87%
Activity (3T3-L1 [8]): 49.29%
Activity (HepG2 [9]): 42.9%
Activity (HepG2 [10]): 31.7%
Activity (3T3-L1 [11]): Active
Activity (Mus musculus [12]): Active
Activity (Mus musculus [13]): Dose-dependent effect
Activity (Mus musculus [14]): Dose-dependent effect
Activity (Mus musculus [15]): Dose-dependent effect
Activity (Mus musculus [16]): Active
Activity (Mus musculus [17]): Active
Activity (Mus musculus [18]): Active
Activity (Mus musculus [19]): Dose-dependent effect
Activity_index (Mus musculus [20]): 52.78
Activity_index (Mus musculus [21]): 9.83
Activity_index (Mus musculus [22]): 12.35
Activity (Mus musculus [23]): Active
Activity (Mus musculus [24]): Active
Activity (Mus musculus [25]): Active
Activity (Mus musculus [26]): Active
Activity (Mus musculus [27]): Active
Activity (Mus musculus [28]): Active
Activity (Mus musculus [29]): Active
Activity (Mus musculus [30]): Dose-dependent effect
Activity (Mus musculus [31]): Active
Activity (Mus musculus [32]): Active
